The target of one assay is T1, HLA-A*0201 on T2A2 cells (Homo sapiens, UniProt P04439, D140Y/D185E/D98H/E176V/E277Q/G131W/G231S/I119V/I121R/I166T/I218V/L300P/L318F/N151K/N90K/P208A/P217A/Q86G/Q94H/R138H/R169H/T345S).
T1 construct: T2A2 cells (1 × 10^6 cells/mL) resuspended in serum-free IMDM medium were seeded in 24-well plates; endogenous in cells; host or cells: T2A2 cells
Briefly: T2A2 cell binding affinity assay. The settings on record: 50 μg/mL peptide + 3 μg/mL β2-M; for FI (fluorescence index): FI = [MFI of the peptide − MFI of the background]/[MFI of the background], T2A2 cells, 18 h; for MFI: T2A2 cells 1 × 10^6 cells/mL, 37°C 18 h, HLA-A2 antibody BB7.2, flow cytometry, background MFI 131. For orientation: In flow cytometry, cells or beads pass a laser one at a time.

For assay [1], the target named is T2, peptide/HLA-A*0201 complex on T2A2 cells (Homo sapiens, UniProt P04439, D140Y/D185E/D98H/E176V/E277Q/G131W/G231S/I119V/I121R/I166T/I218V/L300P/L318F/N151K/N90K/P208A/P217A/Q86G/Q94H/R138H/R169H/T345S).
T2 construct: endogenous in cells; host or cells: T2A2 cells
Nature of the assay: Peptide/HLA-A*0201 complex stability assay. In kind it is binding. The settings on record: time for loss of 50% of peptide/HLA-A*0201 complexes stabilized at 0 h, 50 μg/mL peptide, 18 h, brefeldin A 10 μg/mL 1 h, then 0, 2, 4, 6 h at 37°C, flow cytometry. The method, then: The peptide/MHC complex stabilization assays were performed similarly. T2A2 cells were incubated with 50 μg/mL peptides and 3 μg/mL β2-M for 18 h. Then, 10 μg/mL brefeldin A (203729, Sigma, USA) were added in medium for another 1 h, subsequently washed by serum-free IMDM medium and incubated at 37°C for 0, 2, 4, and 6 h. Finally, cells were washed twice, stained with HLA-A2-PE-Cyanine 7 monoclonal antibody, and analyzed by flow cytometer (FACS Calibur, BD Bioscience, USA). DC50 was defined as an estimate of the time required for the loss of 50% of the peptide/HLA-A^∗0201 complexes stabilized at time 0 h.

The subject of assay [2] is peptide-induced CTLs from HLA-A*02+PPD+ donors. Nature of the assay: IFN-γ ELISPOT of peptide-induced CTLs in vitro. In kind it is cell-based, human. The conditions noted are these: CTLs induced with peptide-loaded DCs from HLA-A*02+PPD+ donors, day 21; stimulators peptide-loaded T2A2 cells, 18 h.
Assay [3] has as its system peptide-induced CD8+ T cells from HLA-A*02+ PPD+ / PPD− donors. Nature of the assay: Intracellular cytokine IFN-γ staining (ICS) of peptide-induced CTLs in vitro. In kind it is cell-based, human. The settings on record: for CD8+ IFN-γ+ T cells, PPD+ donors compared with PPD− donors: n = 3 donors each, Student's t-test; for CD8+ IFN-γ+ T cells, PPD+ donors compared with PBS-treated group: n = 3 donors.

Assay [4] concerns peptide-pulsed T2A2 cells. Briefly: LDH cytotoxicity assay of peptide-induced CTLs in vitro. The settings on record: E : T ratio 50 : 1, CTLs from HLA-A*02+PPD+ donors, T2A2 cells pulsed with corresponding peptide, 4 h, n = 4. In kind it is cell-based, human.
In the next assay the test system is IFN-γ. Briefly: Serum IFN-γ ELISA after peptide immunization. Format: in vivo, HLA-A2.1/K^b transgenic mice. The conditions noted are these: serum day 11, n = 5.
Assay [5] relates to CD8+ T cells of splenic lymphocytes. Briefly: ICS assay of restimulated splenic lymphocytes from immunized mice. Format: in vivo, HLA-A2.1/K^b transgenic mice. The conditions noted are these: ICS on day 7 of restimulation, n = 5.
Assay [6] concerns peptide-loaded T2A2 cells. Briefly: LDH lysis assay with CTLs from immunized mice. Format: in vivo, HLA-A2.1/K^b transgenic mice. The settings on record: peptide-loaded T2A2 target cells, n = 5.
Setting [7] is: CFA day -14 then peptide in IFA.

The record followed here is article PMC7803423, “Identification of CTL Epitopes on Efflux Pumps of the ATP-Binding Cassette and the Major Facilitator Superfamily of Mycobacterium tuberculosis” (Journal of Immunology Research, 2021).

As for “RLTEELAWV [Rv2477c-p265, predicted HLA-A2-restricted 9-mer peptide … from MTB efflux pump antigen Rv2477c]”, on HLA-A*0201 on T2A2 cells, the “FI (fluorescence index)” value stood at 1.36 and the MFI came to 315.
For the sequence “ALCEKVTII [Rv1218c-p200, predicted HLA-A2-restricted 9-mer peptide … from MTB efflux pump antigen Rv1218c]”, at HLA-A*0201 on T2A2 cells, the “FI (fluorescence index)” value came out at 1.75 and the MFI worked out at 366. Moreover, the DC50 in assay [1] was over 4 h. For the same sequence, in assay [1] (listed as Rv1218c-P200), the DC50 was over 4 h.
With “LLLSKPDLL [Rv2477c-p173, predicted HLA-A2-restricted 9-mer peptide … from MTB efflux pump antigen Rv2477c]”, at HLA-A*0201 on T2A2 cells, the “FI (fluorescence index)” value turned out to be 1.15 and the MFI came to 272.
For the sequence “LMMPQTVTV [Rv2994-p223, predicted HLA-A2-restricted 9-mer peptide … from MTB efflux pump antigen Rv2994]”, on HLA-A*0201 on T2A2 cells, the “FI (fluorescence index)” value is recorded as 2.28 and the MFI is listed as 430. The sequence also yielded a DC50 in assay [1] of under 2 h.
In the case of “WMSIGVFSV [Rv1819c-p122, predicted HLA-A2-restricted 9-mer peptide … from MTB efflux pump antigen Rv1819c]”, at HLA-A*0201 on T2A2 cells, the “FI (fluorescence index)” value is given as 0.35 and the MFI amounted to 177.
Regarding “LLDEPSSGL [Rv1218c-p158, predicted HLA-A2-restricted 9-mer peptide … from MTB efflux pump antigen Rv1218c]”, on HLA-A*0201 on T2A2 cells, the “FI (fluorescence index)” value is listed as 2.35 and the MFI is 439. In addition, the DC50 in assay [1] is over 4 h. The “IFN-γ secretion of peptide-induced CTLs (ELISPOT)” value (from here on “IFN-γ secretion”) in assay [2] was “secreted IFN-γ most potently”. Besides, in assay [3], the “CD8+ IFN-γ+ T cells, PPD+ donors compared with PPD− donors” value was “significantly more CD8^+ IFN-γ^+ T cells”.
For the sequence “YLLGGTVVV [Rv1877-p71, predicted HLA-A2-restricted 9-mer peptide … from MTB efflux pump antigen Rv1877]”, at HLA-A*0201 on T2A2 cells, the “FI (fluorescence index)” value is listed as 2.17 and the MFI turned out to be 419. In addition, the DC50 in assay [1] is given as over 2 h.
In the same order, the values of “LLDEPTSAL [Rv0933-p186, predicted HLA-A2-restricted 9-mer peptide … from MTB efflux pump antigen Rv0933]” are 2.52, 465 and under 2 h.
As for “VLAADAVFV [Rv2459c-p469, predicted HLA-A2-restricted 9-mer peptide … from MTB efflux pump antigen Rv2459c]”, at HLA-A*0201 on T2A2 cells, the “FI (fluorescence index)” value is 2.36 and the MFI is 440. Further, the DC50 in assay [1] is given as over 4 h. In assay [2], the “IFN-γ secretion” value is “secreted IFN-γ most potently”. For the same sequence, in assay [3], the “CD8+ IFN-γ+ T cells, PPD+ donors compared with PBS-treated group” value is “more CD8^+ IFN-γ^+ T cells than the PBS-treated group” and the “CD8+ IFN-γ+ T cells, PPD+ donors compared with PPD− donors” value is on record as “significantly more CD8^+ IFN-γ^+ T cells”.
Consider ALDGLDLTV [Rv1218c-p24], for which, on HLA-A*0201 on T2A2 cells, the “FI (fluorescence index)” value is reported as 3.32 and the MFI came to 569. In addition, the DC50 in assay [1] is over 4 h. Further, the “IFN-γ secretion” value in assay [2] was “secreted IFN-γ most potently”. For the same sequence, in assay [3], the “CD8+ IFN-γ+ T cells, PPD+ donors compared with PBS-treated group” value is “more CD8^+ IFN-γ^+ T cells than the PBS-treated group” and the “CD8+ IFN-γ+ T cells, PPD+ donors compared with PPD− donors” value is recorded as “significantly more CD8^+ IFN-γ^+ T cells”. In addition, in assay [4], the lysis rate was determined as 88.6%. Also, the “serum IFN-γ concentration (ELISA), CFA preimmunization” value in the assay on IFN-γ (CFA 200 μL s.c. day -14, then peptide 100 μg/mice + T helper epitope 140 μg/mice in IFA days 0, 5, 10) is 1817.0 pg/mL. For the same sequence, the “serum IFN-γ concentration (ELISA), IFA” value in the assay with IFN-γ (peptide 100 μg/mice + T helper epitope 140 μg/mice in IFA 1 : 1, s.c. base of tail, days 0, 5, 10) amounted to 363 pg/mL. Also, the “CD8+ IFN-γ+ T cells compared with NS group, CFA preimmunization” value in assay [5] (setting [7]) is listed as “produced more CD8^+ IFN-γ^+ T cells than the NS group”. The “CD8+ IFN-γ+ T cells compared with NS group, IFA” value in assay [5] (IFA immunization) was “induced more CD8^+IFN-γ^+ T cells than the NS group”. Also, in assay [6] (setting [7]), the “lysis rate, CFA preimmunization, E : T 40 : 1” value amounted to 24.6% and the “lysis rate, CFA preimmunization, E : T 80 : 1” value came out at 41.2%. In addition, in assay [6] (IFA immunization), the “lysis rate, IFA, E : T 80 : 1” value was 26.4%.
“TLFKTIVGL [Rv2477c-p362, predicted HLA-A2-restricted 9-mer peptide … from MTB efflux pump antigen Rv2477c]”: on HLA-A*0201 on T2A2 cells, the “FI (fluorescence index)” value was determined as 1.72 and the MFI is 367. The DC50 in assay [1] is over 2 h.
The like results for “VLATGVTLV [Rv2209-p158, predicted HLA-A2-restricted 9-mer peptide … from MTB efflux pump antigen Rv2209]” were, in that order, 2.54, 462 and over 4 h.
Regarding “RLGNVVVEV [Rv2477c-p316, predicted HLA-A2-restricted 9-mer peptide … from MTB efflux pump antigen Rv2477c]”, at HLA-A*0201 on T2A2 cells, the “FI (fluorescence index)” value amounted to 1.58 and the MFI is given as 348. The sequence further displayed a DC50 in assay [1] of over 2 h.
With “GLDPLMENV [Rv1218c-p165, predicted HLA-A2-restricted 9-mer peptide … from MTB efflux pump antigen Rv1218c]”, on HLA-A*0201 on T2A2 cells, the “FI (fluorescence index)” value turned out to be 2.6 and the MFI is given as 479. For the same sequence, the DC50 in assay [1] was over 2 h.
In the same order, the values of “SLADRLTVI [Rv0933-p208, predicted HLA-A2-restricted 9-mer peptide … from MTB efflux pump antigen Rv0933]” are 2.59, 479 and under 2 h.
In the same order, the values of “ILIGETIKI [COX-2-p321, reference compound]” are 2.11, 408 and over 4 h.
The like results for “SLVSQPPTL [Rv1218c-p280, predicted HLA-A2-restricted 9-mer peptide … from MTB efflux pump antigen Rv1218c]” were, in that order, 1.62, 353 and under 2 h.
